Laboratory results from patent US10292597B2, “Assessing endothelial function and providing calibrated UFMD data using a blood pressure cuff” (The Regents of the University of California, priority 2015, dated 2019).
Entries after “also recorded” stand apart in the source; their conditions may differ.

Key:
NO synthase = assay: Single pulse waveforms from the pressure cuff after endothelial stimulation, with NO synthase inhibitor; type: in vivo, human; details: cuff inflated to 70 mm Hg; FIG. 3
Excerpt: Both the amplitude and slope of the rising edge of the pulse increase markedly after endothelial stimulation.
In an artery with intact endothelial function, both pulse height (maximal cross-sectional arterial area) and compliance (maximum slope of the rising edge) increase markedly over baseline. […] FIG. 4 illustrates how a five minute cuff occlusion and the ensuring reactive hyperemia lead to major increases in area change per pulse and the maximum derivative of the area per pulse. Both metrics return to baseline levels after 20 minutes. FIG. 5 confirms the repeatability of the protocol by illustrating the effects of a series of two cuff occlusion periods. We see from FIG. 6 that only a small slow drift in the measured quantities occurs when no reactive hyperemic stimulus is applied.
A stimulus is then applied to the subject. Any of a number of stimuli expected to alter endothelial function are contemplated. Such stimuli include, for example, occlusion of blood flow, and/or application of one or more drugs to the subject. Illustrative drugs include, for example, drugs that act as NO agonists (e.g. acetylcholine), β2-adrenergic agonists such as albuterol, acoustic/mechanical tissue vibration, transcutaneous low frequency ultrasound (see, e.g., Iida et al. (2006) J. Amer. Coll. Cardiol., 48(3): 532-537), and the like. […]

arterial smooth muscle = details: cited from earlier work
brachial artery = assay: Cuff-based measurement of pulse amplitude (proportional to arterial area) before and after a stimulus; type: in vivo, human
Method: Three individuals in the age-range of 28-38 were examined. All subjects had Framingham risk scores of 1% or less, and had no history of cardiovascular disease. Each individual was assessed at least three times before and after RH induced by five minutes of suprasystolic cuff occlusion. At least one additional measurement was made using the same protocol, except without cuff inflation. Sensitivity to a 0.4 mg dose of sublingual NG was assessed three times in two individuals.
Sensitivity to a 0.4 mg dose of sublingual NG was assessed three times in two individuals. In the analysis that follows, all of the datasets are pooled by stimulus. This addresses the question: Can the method measure changes in arterial tone due to vasorelaxatory stimuli and with what sensitivity?
A single quantity relating to the recorded pressure data, the pulse amplitude, was studied and it was posited that this is proportional to the arterial area. During the post stimulus interval, pressure data from the cuff were recorded approximately every 80 seconds, for a period of 30 seconds. During each recording interval, the cuff was inflated to 70 mm Hg, which was always below the measured diastolic pressure of the subject. To quantify the observed response, the mean of the pulse quantity (in this case, amplitude) during the response interval was divided by the mean value of the same quantity during the baseline interval. FIG. 10 illustrates the results.
In Table 2, the maximum response for each stimulus is calculated and the statistical significance of the change relative to the NS case (one-tail Student's t test) is evaluated. Values of p<0:05 were considered significant.
(iii) The cuff is inflated to a value Pm, which must be less than the mean arterial pressure, for a period Tm=30 s. During this time interval, we measure and record the pressure fluctuations in the cuff.
v) The stimulus is applied. This is either 1-5 min of cuff occlusion to suprasystolic pressure Ps (for studies of endothelial function) or a dose of sublingual NG (for studies of endothelium-independent vasodilation).
(vi) After Tp=45 s have elapsed following cuff release or drug administration, a series of up to Nr=10 repeat measurement intervals ensue. In each interval, the cuff is inflated to Pm for Tm seconds, after which it is deflated for Tw seconds. This large number of repeat measurements (Nr) is required only when one wishes to record the return of the vessel toward baseline.
(viii) Each post-stimulus response is then compared to the average baseline response, to yield the area-based cFMD metric (Equation 2) defined above. […]
(iv) The maximum of the cFMD metric in Equation 2, analogous to that used for uFMD, expressed directly as a function of the measurement data, is calculated as […]

For COC(=O)[C@@H](N)CCCNC(=N)N[N+](=O)[O-] [L-NAME], the “effect on increase of pulse amplitude and rising-edge slope after endothelial stimulation” value (NO synthase) was “greatly attenuates this response; also recorded: greatly attenuated”.

In the case of O=[N+]([O-])OCC(CO[N+](=O)[O-])O[N+](=O)[O-] [NG, Nitroglycerin], the “smooth muscle dilation elicited” value (arterial smooth muscle; 400 μg sublingual dose, Feldman et al. (1979), Adams et al. (1998)) is listed as “maximal smooth muscle dilation”, the “typical dilation due to nitroglycerin” value (arterial smooth muscle; observed at Ptm=PS) is listed as “≈ 20%” and the “change in metric, NG vs. NS” value (brachial artery; 400 μg sublingual vs zero dose (no stimulus)) is listed as 70%. For the same molecule, the cDmax % (brachial artery; 400 μg sublingual, Table 5) was 70%, the “Mean ± SEM of maximum response over all data sets (dilation response)” value (brachial artery; 400 μg sublingual, pooled data sets, Table 5) was 1.70 ± 0.036 and the “Mean ± SEM of maximum Response over all data sets (amplitude response, response/baseline)” value (brachial artery; 0.4 mg sublingual, cuff inflated to 70 mm Hg, pooled data sets, Table 2) was 1.70 ± 0.036.
